Drawing on article PMC7279038, “Antioxidant and Neuroprotective Effects Induced by Cannabidiol and Cannabigerol in Rat CTX-TNA2 Astrocytes and Isolated Cortexes” (International Journal of Molecular Sciences, 2020), this text covers IC50 for one molecule.

Structures are written as SMILES.

What all share (settings): mean ± S.D., n = 3
Experiment [1] can be described thus: ABTS scavenging ability test. The procedure: For the 2,2′-azino-bis(3-ethylbenzothiazoline) 6-sulfonic acid (ABTS) radical scavenging assay, ABTS+ was produced directly by reacting 7 mM ABTS solution with 2.45 mM potassium persulfate and allowing the mixture to stand for […] in the dark at room temperature. Prior to beginning the assay, ABTS solution was diluted with methanol to an absorbance of 0.700 ± 0.02 at 734 nm. Sample solution was added to ABTS solution (2 mL) and mixed. The sample absorbance was read at 734 nm after a 30 min incubation at room temperature. The ABTS radical scavenging activity was expressed as IC50 values.

The nature of experiment [2]: DPPH scavenging ability test. The procedure:
For the 1,1-diphenyl-2-picrylhydrazyl (DPPH) radical scavenging assay, sample solution was added to 4 mL of a 0.004% methanol solution of DPPH. The sample absorbance was read at 517 nm after a 30 min incubation at room temperature in the dark. DPPH radical scavenging activity was expressed as IC50 values.

A short description of experiment [3]: Ferric reducing antioxidant power (FRAP). The procedure:
For the ferric reducing antioxidant power (FRAP) activity assay, sample solution was added to premixed FRAP reagent (2 mL) containing acetate buffer (0.3 M, pH 3.6), 2,4,6-tris(2-pyridyl)-S-triazine (TPTZ) (10 mM) in 40 mM HCl and ferric chloride (20 mM) in a ratio of 10:1:1 (v/v/v). Then, the sample absorbance was read at 593 nm after a 30 min incubation at room temperature. FRAP activity was expressed as IC50 values.

The nature of experiment [4]: Cupric reducing antioxidant capacity (CUPRAC). The procedure: For the cupric ion reducing activity (CUPRAC) activity assay, sample solution was added to premixed reaction mixture containing CuCl2 (1 mL, 10 mM), neocuproine (1 mL, 7.5 mM) and NH4Ac buffer (1 mL, 1 M, pH 7.0). Similarly, a blank was prepared by adding sample solution (0.5 mL) to premixed reaction mixture […] without CuCl2. Then, the sample and blank absorbances were read at 450 nm after a 30 min incubation at room temperature. The absorbance of the blank was subtracted from that of the sample. CUPRAC activity was expressed as IC50 values.

As for `Cc1c(C)c2c(c(C)c1O)CCC(C)(C(=O)O)O2` (stereo not shown) [Trolox], the IC50 in experiment [1] was determined as 410 ± 10 µM; in experiment [2], 210 ± 10 µM; in experiment [3], 180 ± 10 µM; in experiment [4], 500 ± 10 µM.
